Patent US20070128217A1 (priority 2003, published 2007)

How the values were obtained:
[1] = tested on: rabbit serum obtained by immunizing a rabbit with the SARS-CoV strain Frankfurt 1; type: binding; design: Binding of a rabbit serum to linear peptides / Binding of a rabbit serum to looped peptides / Rabbit serum linear peptides / Rabbit serum looped peptides / Binding of a rabbit serum to linear peptides of protein N of SARS-CoV Urbani (Rabbit serum linear peptides) / Binding of a rabbit serum to looped/cyclic peptides of protein N of SARS-CoV Urbani (Rabbit serum looped peptides): unit not given here
[2] = tested on: control sera (pooled serum of ten healthy LUMC hospital workers; commercial negative donor pooled serum from the Dutch bloodbank); type: binding, human; design: Binding of Control serum LUMC to linear peptides / Binding of Control serum Blood-bank to linear peptides / Binding of Control serum LUMC to looped peptides / Binding of Control Serum Blood-Bank to Looped peptides / Binding of Control serum LUMC to linear peptides of the protein M of SARS-CoV Urbani / Binding of Control serum Blood-bank to linear peptides of the protein M of SARS-CoV Urbani / Binding of Control serum LUMC to looped peptides of the protein M of SARS-CoV Urbani / Binding of Control Serum Blood-Bank to Looped peptides of the protein M of SARS-CoV Urbani: unit not given here
[3] = tested on: antibodies in sera from SARS patients (sera 1a, 1b, 2, 6, 37, 62, London, SARS-yellow, SARS-green); type: binding, human; design: Binding of serum 6 to linear peptides of protein X1 of SARS-CoV Urbani / Binding of serum 37 to linear peptides of protein X1 of SARS-CoV Urbani / Binding of serum 6 to looped/cyclic peptide (PEPSCAN-ELISA) / Binding of serum 37 to looped/cyclic peptide (PEPSCAN-ELISA) / Binding of serum 37 to looped/cyclic peptides of protein X1 of SARS-CoV Urbani / Binding of serum 6 to linear peptides of protein X2 / Binding of serum 37 to linear peptides of protein X2 / Binding of serum 37 to looped/cyclic peptides of protein X2 of SARS-CoV Urbani / Binding of serum 6 to linear peptides of protein M of SARS-CoV Urbani / Binding of serum 37 to linear peptides of protein M of SARS-CoV Urbani / Binding of serum 6 to looped/cyclic peptides of protein M of SARS-CoV Urbani / Binding of serum 37 to looped/cyclic peptides of protein M of SARS-CoV Urbani / Binding of serum 6 to linear peptides of protein X3 of SARS-CoV Urbani / Binding of serum 37 to linear peptides of protein X3 of SARS-CoV Urbani / Binding of serum 37 to looped/cyclic peptides of protein X3 of SARS-CoV Urbani / Binding of serum 6 to linear peptides of protein X4 of SARS-CoV Urbani / Binding of serum 37 to linear peptides of protein X4 of SARS-CoV Urbani / Binding of serum 37 to looped/cyclic peptides of protein X4 of SARS-CoV Urbani / Binding of serum 6 to linear peptides of protein X5 of SARS-CoV Urbani / Binding of serum 37 to linear peptides of protein X5 of SARS-CoV Urbani / Binding of serum 37 to looped/cyclic peptides of protein X5 of SARS-CoV Urbani / Binding of serum 6 to linear peptides of protein N of SARS-CoV Urbani / Binding of serum 37 to linear peptides of protein N of SARS-CoV Urbani / Binding of serum 6 to linear peptide (PEPSCAN-ELISA) / Binding of serum 1a to looped/cyclic peptides of protein N of SARS-CoV Urbani / Binding of serum 1b to looped/cyclic peptides of protein N of SARS-CoV Urbani / Binding of serum 2 to looped/cyclic peptides of protein N of SARS-CoV Urbani / Binding of serum 6 to looped/cyclic peptides of protein N of SARS-CoV Urbani / Binding of serum 37 to looped/cyclic peptides of protein N of SARS-CoV Urbani / Binding of serum 62 to looped/cyclic peptides of protein N of SARS-CoV Urbani / Binding of serum London to looped/cyclic peptides of protein N of SARS-CoV Urbani / Binding of serum SARS-green to looped/cyclic peptides of protein N of SARS-CoV Urbani: unit not given here

VASFRLFARTRSMWS
Rabbit serum linear peptides [1]: 0.8 | Rabbit serum looped peptides [1]: 0.4 | Binding of Control Serum Blood-Bank to Looped peptides of the protein M of SARS-CoV Urbani [2]: 0.8 | Binding of Control serum Blood-bank to linear peptides of the protein M of SARS-CoV Urbani [2]: 0.7 | Binding of Control serum LUMC to linear peptides of the protein M of SARS-CoV Urbani [2]: 0.4 | Binding of Control serum LUMC to looped peptides of the protein M of SARS-CoV Urbani [2]: 0.6 | Binding of serum 1a to linear peptides of protein M of SARS-CoV Urbani [3]: 0.7 | Binding of serum 1b to linear peptides of protein M of SARS-CoV Urbani [3]: 0.5 | Binding of serum 2 to linear peptides of protein M of SARS-CoV Urbani [3]: 0.5 | Binding of serum 6 to linear peptides of protein M of SARS-CoV Urbani [3]: 0.3 | Binding of serum 37 to linear peptides of protein M of SARS-CoV Urbani [3]: 0.7 | Binding of serum 62 to linear peptides of protein M of SARS-CoV Urbani [3]: 0.8 | Binding of serum London to linear peptides of protein M of SARS-CoV Urbani [3]: 0.3 | Binding of serum SARS-green to linear peptides of protein M of SARS-CoV Urbani [3]: 0.3 | Binding of serum SARS-yellow to linear peptides of protein M of SARS-CoV Urbani [3]: 0.0 | Recognition of the peptide by sera of SARS-CoV infected individuals, and form (linear, looped/cyclic) in which it is recognized [3]: recognized in looped/cyclic form

VFLWLLWPVTLACFV
Rabbit serum linear peptides [1]: 0.3 | Rabbit serum looped peptides [1]: 0.3 | Binding of Control Serum Blood-Bank to Looped peptides of the protein M of SARS-CoV Urbani [2]: 0.8 | Binding of Control serum Blood-bank to linear peptides of the protein M of SARS-CoV Urbani [2]: 0.6 | Binding of Control serum LUMC to linear peptides of the protein M of SARS-CoV Urbani [2]: 0.6 | Binding of Control serum LUMC to looped peptides of the protein M of SARS-CoV Urbani [2]: 0.8 | Binding of serum 1a to linear peptides of protein M of SARS-CoV Urbani [3]: 0.8 | Binding of serum 1a to looped/cyclic peptides of protein M of SARS-CoV Urbani [3]: 0.7 | Binding of serum 1b to linear peptides of protein M of SARS-CoV Urbani [3]: 0.6 | Binding of serum 1b to looped/cyclic peptides of protein M of SARS-CoV Urbani [3]: 0.0 | Binding of serum 2 to linear peptides of protein M of SARS-CoV Urbani [3]: 0.6 | Binding of serum 2 to looped/cyclic peptides of protein M of SARS-CoV Urbani [3]: 0.7 | Binding of serum 6 to linear peptides of protein M of SARS-CoV Urbani [3]: 0.4 | Binding of serum 6 to looped/cyclic peptides of protein M of SARS-CoV Urbani [3]: 0.5 | Binding of serum 37 to linear peptides of protein M of SARS-CoV Urbani [3]: 0.5 | Binding of serum 37 to looped/cyclic peptides of protein M of SARS-CoV Urbani [3]: 0.7 | Binding of serum 62 to linear peptides of protein M of SARS-CoV Urbani [3]: 0.5 | Binding of serum 62 to looped/cyclic peptides of protein M of SARS-CoV Urbani [3]: 0.7 | Binding of serum London to linear peptides of protein M of SARS-CoV Urbani [3]: 0.5 | Binding of serum London to looped/cyclic peptides of protein M of SARS-CoV Urbani [3]: 0.2 | Binding of serum SARS-green to linear peptides of protein M of SARS-CoV Urbani [3]: 0.6 | Binding of serum SARS-green to looped/cyclic peptides of protein M of SARS-CoV Urbani [3]: 0.3 | Binding of serum SARS-yellow to linear peptides of protein M of SARS-CoV Urbani [3]: 0.3 | Binding of serum SARS-yellow to looped/cyclic peptides of protein M of SARS-CoV Urbani [3]: 0.8

VIGFLFLAWIMLLQF
Rabbit serum linear peptides [1]: 0.3 | Rabbit serum looped peptides [1]: 0.3 | Binding of Control Serum Blood-Bank to Looped peptides of the protein M of SARS-CoV Urbani [2]: 0.7 | Binding of Control serum Blood-bank to linear peptides of the protein M of SARS-CoV Urbani [2]: 0.5 | Binding of Control serum LUMC to linear peptides of the protein M of SARS-CoV Urbani [2]: 0.3 | Binding of Control serum LUMC to looped peptides of the protein M of SARS-CoV Urbani [2]: 0.7 | Binding of serum 1a to linear peptides of protein M of SARS-CoV Urbani [3]: 0.7 | Binding of serum 1a to looped/cyclic peptides of protein M of SARS-CoV Urbani [3]: 0.7 | Binding of serum 1b to linear peptides of protein M of SARS-CoV Urbani [3]: 0.4 | Binding of serum 1b to looped/cyclic peptides of protein M of SARS-CoV Urbani [3]: 0.4 | Binding of serum 2 to linear peptides of protein M of SARS-CoV Urbani [3]: 0.4 | Binding of serum 2 to looped/cyclic peptides of protein M of SARS-CoV Urbani [3]: 0.5 | Binding of serum 6 to linear peptides of protein M of SARS-CoV Urbani [3]: 0.3 | Binding of serum 6 to looped/cyclic peptides of protein M of SARS-CoV Urbani [3]: 0.5 | Binding of serum 37 to linear peptides of protein M of SARS-CoV Urbani [3]: 0.7 | Binding of serum 37 to looped/cyclic peptides of protein M of SARS-CoV Urbani [3]: 0.5 | Binding of serum 62 to linear peptides of protein M of SARS-CoV Urbani [3]: 0.7 | Binding of serum 62 to looped/cyclic peptides of protein M of SARS-CoV Urbani [3]: 0.7 | Binding of serum London to linear peptides of protein M of SARS-CoV Urbani [3]: 0.3 | Binding of serum London to looped/cyclic peptides of protein M of SARS-CoV Urbani [3]: 0.2 | Binding of serum SARS-green to linear peptides of protein M of SARS-CoV Urbani [3]: 0.2 | Binding of serum SARS-green to looped/cyclic peptides of protein M of SARS-CoV Urbani [3]: 0.3 | Binding of serum SARS-yellow to linear peptides of protein M of SARS-CoV Urbani [3]: 0.0 | Binding of serum SARS-yellow to looped/cyclic peptides of protein M of SARS-CoV Urbani [3]: 0.6
